In US7138361B2, “Herbicidal heterocycles” (E. I. du Pont de Nemours and Company, priority 2000, dated 2006):

How the values were obtained:
Assay type in all cases: in vivo
[1] = tested on: smallflower flatsedge (Cyperus difformis); assay: Test B flooded paddy test; conditions: Rate 1000 g/ha, scale of 0 to 100 where 0 is no effect and 100 is complete control, visually evaluated after 13 to 15 days
In short: (§1)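 Visual rating on a 0–100 scale, where 100 is complete control, made after 13 to 15 days in a greenhouse by comparison with untreated controls. Species treated in the flooded paddy were at the 2-leaf stage: barnyardgrass, duck salad, smallflower flatsedge and rice.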

[2] = tested on: duck salad (Heteranthera limosa); assay: Test B flooded paddy test; conditions: Rate 1000 g/ha, scale of 0 to 100 where 0 is no effect and 100 is complete control, visually evaluated after 13 to 15 days
In short: as §1

[3] = tested on: barnyardgrass (Echinochloa crus-galli); assay: Test B flooded paddy test; conditions: Rate 1000 g/ha, scale of 0 to 100 where 0 is no effect and 100 is complete control, visually evaluated after 13 to 15 days
In short: as §1

rice (Oryza saliva) [4] = assay: Test B flooded paddy test; conditions: Rate 1000 g/ha, scale of 0 to 100 where 0 is no effect and 100 is complete control, visually evaluated after 13 to 15 days
In short: as §1

[5] = tested on: duck salad (Heteranthera limosa); assay: Test C flooded paddy test; conditions: for Ducksalad plant response rating: scale 0 to 100, 0 no effect, 100 complete control
In short: (§2)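 Flooded paddy, 2-leaf stage at treatment. Readout: visual % control vs untreated, 0–100, at 12–14 d in greenhouse.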

[6] = tested on: barnyardgrass (Echinochloa crus-galli); assay: Test C flooded paddy test; conditions: for Barnyardgrass plant response rating: scale 0 to 100, 0 no effect, 100 complete control
In short: as §2

rice (Oryza saliva) [7] = assay: Test C flooded paddy test; conditions: for Rice plant response rating: scale 0 to 100, 0 no effect, 100 complete control
In short: as §2

[8] = Flooded Paddy, Rate 500 g/ha, scale 0 to 100
[9] = flooded paddy test, Rate 62 g/ha, scale 0 to 100 (0 no effect, 100 complete control)
[10] = flooded paddy test, Rate 125 g/ha, scale 0 to 100 (0 no effect, 100 complete control)
[11] = flooded paddy test, Rate 16 g/ha, visually evaluated after 12 to 14 days, 0 = no effect, 100 = complete control
[12] = flooded paddy test, under head Rate 16 g/ha, (own rate not given), after 12 to 14 days

CC1CCc2cn(C3CCN(c4cccc(C(F)(F)F)c4)C3=O)nc21 (stereo not shown) [Compound 11]
Plant response rating, Flatsedge [1]: 100
Plant response rating, Ducksalad [2]: 90
Plant response rating, Barnyardgrass [3]: 60
Plant response rating, Rice (rice (Oryza saliva) [4]): 40
Plant response rating, Ducksalad [5, 8]: 30
Ducksalad plant response rating ([5]; Flooded Paddy, Rate 250 g/ha): 20
Plant response rating, Ducksalad [5, 9]: 0
Plant response rating, Ducksalad [5, 10]: 20
Plant response rating, Barnyardgrass [6, 8]: 80
Barnyardgrass plant response rating ([6]; Flooded Paddy, Rate 250 g/ha): 30
Plant response rating, Barnyardgrass [6, 9]: 0
Plant response rating, Barnyardgrass [6, 10]: 20
Plant response rating, Rice (rice (Oryza saliva) [7]; [8]): 30
Rice plant response rating (rice (Oryza saliva) [7]; Flooded Paddy, Rate 250 g/ha): 20
Plant response rating, Rice (rice (Oryza saliva) [7]; [9]): 0
Plant response rating, Rice (rice (Oryza saliva) [7]; [10]): 0

CCC(C)c1ccn(C2OCN(c3cccc(C(F)(F)F)c3)C2=O)n1 (stereo not shown) [Compound 24]
Plant response rating, Flatsedge [1]: 100
Plant response rating, Ducksalad [2]: 100
Plant response rating, Barnyardgrass [3]: 100
Plant response rating, Rice (rice (Oryza saliva) [4]): 90
Ducksalad plant response rating ([5]; Flooded Paddy, Rate 250 g/ha): 100
Ducksalad plant response rating ([5]; Flooded Paddy, Rate 500 g/ha): 100
Plant response rating, Ducksalad [5, 9]: 60
Plant response rating, Ducksalad [5, 10]: 100
Plant response rating (scale 0 to 100), Ducksalad [5, 11]: 50
Plant response rating (scale 0 to 100), Ducksalad [5, 12]: 50
Barnyardgrass plant response rating ([6]; Flooded Paddy, Rate 250 g/ha): 100
Barnyardgrass plant response rating ([6]; Flooded Paddy, Rate 500 g/ha): 100
Plant response rating, Barnyardgrass [6, 9]: 100
Plant response rating, Barnyardgrass [6, 10]: 100
Plant response rating (scale 0 to 100), Barnyardgrass [6, 11]: 100
Plant response rating (scale 0 to 100), Barnyardgrass [6, 12]: 80
Rice plant response rating (rice (Oryza saliva) [7]; Flooded Paddy, Rate 250 g/ha): 30
Rice plant response rating (rice (Oryza saliva) [7]; Flooded Paddy, Rate 500 g/ha): 60
Plant response rating, Rice (rice (Oryza saliva) [7]; [9]): 0
Plant response rating, Rice (rice (Oryza saliva) [7]; [10]): 20
Plant response rating (scale 0 to 100), Rice (rice (Oryza saliva) [7]; [11]): 20
Plant response rating (scale 0 to 100), Rice (rice (Oryza saliva) [7]; [12]): 20

O=C1C(n2ccc(C3CC3)n2)SCN1c1cccc(C(F)(F)F)c1 (stereo not shown) [Compound 26]
Plant response rating, Flatsedge [1]: 0
Plant response rating, Ducksalad [2]: 0
Plant response rating, Barnyardgrass [3]: 0
Plant response rating, Rice (rice (Oryza saliva) [4]): 0
Ducksalad plant response rating ([5]; Flooded Paddy, Rate 250 g/ha): 100
Ducksalad plant response rating ([5]; Flooded Paddy, Rate 500 g/ha): 70
Plant response rating, Ducksalad [5, 9]: 0
Plant response rating, Ducksalad [5, 10]: 80
Barnyardgrass plant response rating ([6]; Flooded Paddy, Rate 250 g/ha): 80
Barnyardgrass plant response rating ([6]; Flooded Paddy, Rate 500 g/ha): 100
Plant response rating, Barnyardgrass [6, 9]: 0
Plant response rating, Barnyardgrass [6, 10]: 50
Rice plant response rating (rice (Oryza saliva) [7]; Flooded Paddy, Rate 250 g/ha): 80
Rice plant response rating (rice (Oryza saliva) [7]; Flooded Paddy, Rate 500 g/ha): 80
Plant response rating, Rice (rice (Oryza saliva) [7]; [9]): 0
Plant response rating, Rice (rice (Oryza saliva) [7]; [10]): 40

CC(C)c1ccn(C2SCN(c3cccc(OC(F)(F)F)c3)C2=O)n1 (stereo not shown) [Compound 31]
Plant response rating, Flatsedge [1]: 100
Plant response rating, Ducksalad [2]: 100
Plant response rating, Barnyardgrass [3]: 100
Plant response rating, Rice (rice (Oryza saliva) [4]): 90
Ducksalad plant response rating ([5]; Flooded Paddy, Rate 250 g/ha): 100
Ducksalad plant response rating ([5]; Flooded Paddy, Rate 500 g/ha): 100
Plant response rating, Ducksalad [5, 9]: 70
Plant response rating, Ducksalad [5, 10]: 90
Barnyardgrass plant response rating ([6]; Flooded Paddy, Rate 250 g/ha): 90
Barnyardgrass plant response rating ([6]; Flooded Paddy, Rate 500 g/ha): 100
Plant response rating, Barnyardgrass [6, 9]: 80
Plant response rating, Barnyardgrass [6, 10]: 80
Rice plant response rating (rice (Oryza saliva) [7]; Flooded Paddy, Rate 250 g/ha): 90
Rice plant response rating (rice (Oryza saliva) [7]; Flooded Paddy, Rate 500 g/ha): 90
Plant response rating, Rice (rice (Oryza saliva) [7]; [9]): 30
Plant response rating, Rice (rice (Oryza saliva) [7]; [10]): 60

CCC(C)c1ccn(C2SCN(c3cccc(OC(F)(F)F)c3)C2=O)n1 (stereo not shown) [Compound 32]
Plant response rating, Flatsedge [1]: 100
Plant response rating, Ducksalad [2]: 100
Plant response rating, Barnyardgrass [3]: 100
Plant response rating, Rice (rice (Oryza saliva) [4]): 100
Ducksalad plant response rating ([5]; Flooded Paddy, Rate 250 g/ha): 100
Ducksalad plant response rating ([5]; Flooded Paddy, Rate 500 g/ha): 80
Plant response rating, Ducksalad [5, 9]: 50
Plant response rating, Ducksalad [5, 10]: 80
Barnyardgrass plant response rating ([6]; Flooded Paddy, Rate 250 g/ha): 100
Barnyardgrass plant response rating ([6]; Flooded Paddy, Rate 500 g/ha): 100
Plant response rating, Barnyardgrass [6, 9]: 20
Plant response rating, Barnyardgrass [6, 10]: 100
Rice plant response rating (rice (Oryza saliva) [7]; Flooded Paddy, Rate 250 g/ha): 100
Rice plant response rating (rice (Oryza saliva) [7]; Flooded Paddy, Rate 500 g/ha): 100
Plant response rating, Rice (rice (Oryza saliva) [7]; [9]): 0
Plant response rating, Rice (rice (Oryza saliva) [7]; [10]): 30

COc1cc(N2CCC(n3ccc(C(C)(C)C)n3)C2=O)ccc1C (stereo not shown) [Compound 42]
Plant response rating, Flatsedge [1]: 100
Plant response rating, Ducksalad [2]: 100
Plant response rating, Barnyardgrass [3]: 100
Plant response rating, Rice (rice (Oryza saliva) [4]): 100
Ducksalad plant response rating ([5]; Flooded Paddy, Rate 250 g/ha): 100
Ducksalad plant response rating ([5]; Flooded Paddy, Rate 500 g/ha): 100
Plant response rating, Ducksalad [5, 9]: 100
Plant response rating, Ducksalad [5, 10]: 100
Plant response rating (scale 0 to 100), Ducksalad [5, 11]: 90
Plant response rating (scale 0 to 100), Ducksalad [5, 12]: 80
Barnyardgrass plant response rating ([6]; Flooded Paddy, Rate 250 g/ha): 100
Barnyardgrass plant response rating ([6]; Flooded Paddy, Rate 500 g/ha): 100
Plant response rating, Barnyardgrass [6, 9]: 100
Plant response rating, Barnyardgrass [6, 10]: 100
Plant response rating (scale 0 to 100), Barnyardgrass [6, 11]: 70
Plant response rating (scale 0 to 100), Barnyardgrass [6, 12]: 50
Rice plant response rating (rice (Oryza saliva) [7]; Flooded Paddy, Rate 250 g/ha): 70
Rice plant response rating (rice (Oryza saliva) [7]; Flooded Paddy, Rate 500 g/ha): 80
Plant response rating, Rice (rice (Oryza saliva) [7]; [9]): 20
Plant response rating, Rice (rice (Oryza saliva) [7]; [10]): 40
Plant response rating (scale 0 to 100), Rice (rice (Oryza saliva) [7]; [11]): 0
Plant response rating (scale 0 to 100), Rice (rice (Oryza saliva) [7]; [12]): 0

O=C1C(n2ccc(C3CCCCC3)n2)SCN1c1cccc(OC(F)(F)F)c1 (stereo not shown) [Compound 50]
Plant response rating, Flatsedge [1]: 100
Plant response rating, Ducksalad [2]: 100
Plant response rating, Barnyardgrass [3]: 100
Plant response rating, Rice (rice (Oryza saliva) [4]): 60
Ducksalad plant response rating ([5]; Flooded Paddy, Rate 250 g/ha): 80
Ducksalad plant response rating ([5]; Flooded Paddy, Rate 500 g/ha): 90
Plant response rating, Ducksalad [5, 9]: 0
Plant response rating, Ducksalad [5, 10]: 70
Barnyardgrass plant response rating ([6]; Flooded Paddy, Rate 250 g/ha): 70
Barnyardgrass plant response rating ([6]; Flooded Paddy, Rate 500 g/ha): 80
Plant response rating, Barnyardgrass [6, 9]: 0
Plant response rating, Barnyardgrass [6, 10]: 40
Rice plant response rating (rice (Oryza saliva) [7]; Flooded Paddy, Rate 250 g/ha): 0
Rice plant response rating (rice (Oryza saliva) [7]; Flooded Paddy, Rate 500 g/ha): 50
Plant response rating, Rice (rice (Oryza saliva) [7]; [9]): 0
Plant response rating, Rice (rice (Oryza saliva) [7]; [10]): 0
